Structures can show the parent of a compound that is named as a salt.
These molecules were tested against T1, α2δ subunit derived from porcine brain tissue (Sus scrofa, UniProt A0A287BIN3) (assay: radioligand binding assay using [3H]gabapentin and the α2δ subunit). Conditions: [3H]gabapentin binding.
T1 construct: the α2δ subunit derived from porcine brain tissue; from tissue; host or cells: porcine brain tissue
Text: The biological activity of the alpha-2-delta ligands of the invention may be measured in a radioligand binding assay using [^3H]gabapentin and the α2δ subunit derived from porcine brain tissue (Gee N. S., Brown J. P., Dissanayake V. U. K., Offord J., Thurlow R., Woodruff G. N., J. Biol. Chem., 1996; 271:5768-5776). Results may be expressed in terms of μM or nM α2δ binding affinity.

T1 sequence (A0A287BIN3 25-1109): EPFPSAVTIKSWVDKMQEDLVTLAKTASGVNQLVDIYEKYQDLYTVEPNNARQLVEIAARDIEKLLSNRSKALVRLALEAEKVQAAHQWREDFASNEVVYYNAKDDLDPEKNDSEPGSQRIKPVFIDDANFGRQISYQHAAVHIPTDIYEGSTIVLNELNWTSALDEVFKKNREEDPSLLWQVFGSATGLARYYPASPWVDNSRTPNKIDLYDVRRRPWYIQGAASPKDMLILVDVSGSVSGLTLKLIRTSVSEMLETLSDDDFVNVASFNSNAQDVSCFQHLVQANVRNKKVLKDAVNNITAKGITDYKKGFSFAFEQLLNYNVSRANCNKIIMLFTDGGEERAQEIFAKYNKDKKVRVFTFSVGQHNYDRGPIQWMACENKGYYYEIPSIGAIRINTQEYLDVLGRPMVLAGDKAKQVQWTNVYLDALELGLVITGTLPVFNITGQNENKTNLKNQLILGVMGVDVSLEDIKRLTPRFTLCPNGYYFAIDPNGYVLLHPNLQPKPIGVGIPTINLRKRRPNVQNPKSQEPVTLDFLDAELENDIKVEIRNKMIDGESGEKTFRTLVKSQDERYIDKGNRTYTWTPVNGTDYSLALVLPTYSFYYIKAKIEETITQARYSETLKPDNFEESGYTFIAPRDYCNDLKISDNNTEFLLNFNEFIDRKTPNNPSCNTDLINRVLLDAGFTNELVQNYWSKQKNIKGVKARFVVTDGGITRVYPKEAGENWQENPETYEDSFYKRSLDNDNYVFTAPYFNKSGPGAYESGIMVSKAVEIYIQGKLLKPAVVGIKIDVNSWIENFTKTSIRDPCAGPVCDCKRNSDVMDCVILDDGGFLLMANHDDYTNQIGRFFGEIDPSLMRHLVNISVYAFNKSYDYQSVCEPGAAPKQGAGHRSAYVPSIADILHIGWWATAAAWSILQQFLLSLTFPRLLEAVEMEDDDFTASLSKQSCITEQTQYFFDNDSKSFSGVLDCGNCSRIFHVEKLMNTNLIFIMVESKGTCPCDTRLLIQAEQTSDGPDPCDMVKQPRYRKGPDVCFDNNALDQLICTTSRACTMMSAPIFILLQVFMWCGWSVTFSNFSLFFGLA

SMILES	IC50 [nM]
NC[C@H](Oc1cc(Cl)ccc1Cl)C(=O)O [Example 1, (2S)-3-Amino-2-(2,5-dichlorophenoxy)propanoic acid hydrochloride]	9
NC[C@H](Oc1cccc(Cl)c1)C(=O)O [Example 2]	91

Further lines, results first:

IC50 [nM]	SMILES
124	NC[C@H](Oc1ccccc1Cl)C(=O)O [Example 3]
12	COc1ccc(Cl)cc1O[C@@H](CN)C(=O)O [Example 4]
114	CCCc1cccc(O[C@@H](CN)C(=O)O)c1 [Example 5, (2S)-3-Amino-2-(3-propylphenoxy)propanoic acid hydrochloride]

— US20090227680A1, “Amino Acid Derivatives” (Pfizer, Inc., priority 2005, published 2009)
